Test results taken from US20070254906A1 (DarPharma, Inc., priority 2004, published 2007).
“Also recorded” adds a separate entry of the source. Structures can show the parent of a compound that is named as a salt. Where two headings read alike, the source gives them in different places.

Tests used:
[1] = background statement; cited from earlier work
[2] = tested on: rabbit model of lung injury; assay: Fluid resorption in rabbit model of lung injury; type: in vivo; conditions: intravenous route
[3] = target: 40 binding sites (other than the D1 site); assay: Screen at about 40 receptor binding sites; conditions: inactive at all except D2 and alpha2
injured rat lung = assay: Fluid resorption in rat model of lung injury; type: in vivo; conditions: intravenous administration, listed as DHX, hydrochloride
[4] = target: 40 binding sites (other than the D1 site); conditions: inactive; Mottola et al. (1992); read-out: IC50 at about 40 different receptor binding sites; cited from earlier work
dopamine D1 receptor = conditions: read-out: IC50, binding to dopamine D1 receptor; Mottola et al. (1992); cited from earlier work
[5] = target: alpha2 adrenergic receptors; assay: Binding at alpha2 adrenergic receptors (screen); conditions: Method Example 2 text
adenylate cyclase [6] = assay: Stimulation of adenylate cyclase by dihydrexidine; conditions: for efficacy in stimulating adenylate cyclase: compared with dopamine, rat, monkey, and human brain tissue, hydrochloride
[7] = target: alpha2 adrenergic receptors; conditions: Mottola et al. (1992); cited from earlier work
[8] = Half-life, duration of action and oral absorption; type: in vivo; conditions: for half-life: intravenous, read-out: half-life when given intravenously
[9] = tested on: dopamine release and reuptake; assay: Dopamine release and reuptake
D2 receptors [10] = target: T1, D2 receptors (Rattus norvegicus, UniProt P61169); type: binding; conditions: rat brain striatal homogenates, 3H-spiperone; read-out: D2 Affinity (K0.5) ± SEM
T1 construct: other: rat brain striatal homogenates, 3H-spiperone

D1 receptors [11] = assay: Binding affinity at rat brain striatal D1 receptors (3H-SCH 23390); conditions: for D1:D2 Selectivity: rat brain striatal homogenates
D1 receptors [12] = target: D1 receptors (Rattus norvegicus, UniProt P18901); assay: as above; conditions: read-out: D1 Affinity (K0.5) ± SEM; rat brain striatal homogenates, 3H-SCH 23390
D2 receptors [13] = type: binding, rat
lung liquid clearance = conditions: cited from earlier work
[14] = tested on: alveolar fluid resorption; conditions: isolated, perfused rat lungs; cited from earlier work
D1 receptor = D1 receptor (Homo sapiens, UniProt P21728); assay: Alveolar fluid resorption in transgenic mice overexpressing the D1 receptor; conditions: mice with D1 receptor overexpressed by electroporation
adenylate cyclase [15] = assay: Activation of adenylate cyclase in rat brain striatum; type: biochemical; conditions: compared with dopamine

T1 sequence (P61169 whole entry): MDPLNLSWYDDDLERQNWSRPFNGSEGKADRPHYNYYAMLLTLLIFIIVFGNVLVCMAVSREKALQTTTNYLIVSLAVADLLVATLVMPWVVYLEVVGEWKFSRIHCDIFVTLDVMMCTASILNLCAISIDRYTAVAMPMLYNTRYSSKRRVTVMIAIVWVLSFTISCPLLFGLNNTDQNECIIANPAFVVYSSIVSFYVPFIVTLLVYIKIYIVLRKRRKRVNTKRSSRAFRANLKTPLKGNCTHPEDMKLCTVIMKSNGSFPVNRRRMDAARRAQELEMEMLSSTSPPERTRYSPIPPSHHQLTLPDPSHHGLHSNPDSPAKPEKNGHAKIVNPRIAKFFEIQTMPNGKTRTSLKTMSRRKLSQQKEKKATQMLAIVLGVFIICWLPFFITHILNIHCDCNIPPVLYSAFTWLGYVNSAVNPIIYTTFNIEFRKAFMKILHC
Chain of D1 receptor (P21728 whole entry): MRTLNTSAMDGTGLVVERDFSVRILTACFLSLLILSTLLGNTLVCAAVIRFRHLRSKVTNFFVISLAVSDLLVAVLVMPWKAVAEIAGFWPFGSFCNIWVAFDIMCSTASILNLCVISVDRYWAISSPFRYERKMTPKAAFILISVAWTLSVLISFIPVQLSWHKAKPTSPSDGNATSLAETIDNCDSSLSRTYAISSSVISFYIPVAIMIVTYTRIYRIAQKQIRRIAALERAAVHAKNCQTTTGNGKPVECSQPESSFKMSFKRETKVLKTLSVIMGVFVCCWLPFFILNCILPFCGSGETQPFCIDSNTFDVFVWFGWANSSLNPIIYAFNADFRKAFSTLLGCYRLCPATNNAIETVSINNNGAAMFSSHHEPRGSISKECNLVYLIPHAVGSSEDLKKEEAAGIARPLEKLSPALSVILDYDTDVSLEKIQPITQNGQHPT
Chain of D1 receptors (Rattus norvegicus, UniProt P18901) (P18901 whole entry): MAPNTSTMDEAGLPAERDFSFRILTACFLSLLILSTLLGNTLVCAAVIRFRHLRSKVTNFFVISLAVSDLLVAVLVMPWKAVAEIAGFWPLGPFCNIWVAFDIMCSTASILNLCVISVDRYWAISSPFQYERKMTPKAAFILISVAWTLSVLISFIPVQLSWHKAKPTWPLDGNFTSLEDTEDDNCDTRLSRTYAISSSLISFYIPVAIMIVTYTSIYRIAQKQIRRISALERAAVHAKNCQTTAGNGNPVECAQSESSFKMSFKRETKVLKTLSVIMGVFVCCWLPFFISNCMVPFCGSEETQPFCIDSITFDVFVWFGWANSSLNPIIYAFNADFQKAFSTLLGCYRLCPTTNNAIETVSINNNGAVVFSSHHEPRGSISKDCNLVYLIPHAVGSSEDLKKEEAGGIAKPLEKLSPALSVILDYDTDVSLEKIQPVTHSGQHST

For Oc1ccc(C2CNCCc3c2cc(O)c(O)c3Cl)cc1 (centres unmarked) [fenoldopam], the half-life [1] is listed as “about 15 minutes”.
With Oc1ccc2c(c1O)Cc1cccc3c1C2CNC3 (centres unmarked) (as salt: hydrobromid) [dinapsoline, 8,9-Dihydroxy-2,3,7,11b-tetrahydro-1H-napth[1,2,3-de]isoquinoline] the melting point was 258 °C (dec.).
In the case of Oc1cc2c(cc1O)[C@H]1c3ccccc3CN[C@@H]1CC2 (racemic) [dihydrexidine, Trans-10,11-dihydroxy-5,6,6a,7,8,12b-hexahydrobenzo[α]phenanthridine hydrochloride], the “fluid resorption in lung injury model” value [2] is reported as “shown to induce fluid resorption”, the IC50 [3] is reported as > 10000 nM and the “fluid absorption / resorption from injured lung” value (injured rat lung) is reported as “shown efficacy; also recorded: shown to induce fluid resorption”. For the same compound, the IC50 [4] was > 10000 nM, the IC50 (dopamine D1 receptor) was ~10 nM and the IC50 [5] was ~230 nM. For the same compound, the “efficacy in stimulating adenylate cyclase” value (adenylate cyclase [6]) was “full efficacy”, the “efficacy in stimulating adenylate cyclase” value (adenylate cyclase [6]; listed as DHX) was “as efficacious as dopamine” and the IC50 [7] was 230 nM. For the same compound, the half-life ([8]; in vivo) was ~30 min, the “oral absorption / oral bioavailability” value ([8]; oral administration, listed as DHX, hydrochloride) was “relatively poor; also recorded: poorly absorbed” and the half-life ([8]; serum) was < 10 min. For the same compound, the “functional half-life when given subcutaneously” value ([8]; subcutaneous) was “about 3 hr” and the “releasing dopamine or blocking its reuptake” value [9] was “inactive”.
In the case of Cc1ccc2c(c1)CN[C@H]1CCc3cc(O)c(O)cc3[C@H]21 (relative stereo) (as salt: hydrochloride) [Compound 6c, Trans-3-methyl-10,11-dihydroxy-5,6,6a,7,8, 12b-hexahydrobenzo[α]phenanthridine hydrochloride], the melting point is reported as 190 °C (dec.).
With Cl.Oc1cc2c(cc1O)[C@@H]1c3cc(Cc4ccccc4)ccc3CN[C@H]1CC2 (relative stereo) [Compound 6e, Trans-2-benzyl-10,11-dihydroxy-5,6,6a,7,8,12b-hexahydrobenzo[α]phenanthridine hydrochloride] the Ki (D2 receptors [10]) was 185 nM, the “D1:D2 Selectivity” value (D1 receptors [11]) was 0.6 and the Ki (D1 receptors [12]) was 290 nM.
With CCCN1Cc2cccc3c2C(C1)c1ccc(O)c(O)c1O3 (centres unmarked) [Compound 16c, N-propyl-8,9-dihydroxy-1,2,3,11b-tetrahydrochromeno[4,3,2-de]isoquinoline] the melting point was 259 to 264 °C (dec.).
With Cc1ccc2c(c1)CN[C@H]1CCc3cc(O)c(O)cc3[C@H]21 (relative stereo) [Compound 6c, Trans-3-methyl-10,11-dihydroxy-5,6,6a,7,8, 12b-hexahydrobenzo[α]phenanthridine hydrochloride] the “D2 potency relative to dihydrexidine” value (D2 receptors [13]) was “greater D2 potency”, the “D1 potency and efficacy relative to dihydrexidine” value (D1 receptors [11]) was “comparable to dihydrexidine” and the “D1:D2 Selectivity” value (D1 receptors [11]) was 6.
In the case of NCCc1ccc(O)c(O)c1 [dopamine], the “increase in lung liquid clearance” value (lung liquid clearance; dopamine instilled at 10-5) is listed as 131%, the “increase in lung liquid clearance” value (lung liquid clearance; dopamine instilled at 10-6) is listed as 47% and the “increase in lung liquid clearance” value (lung liquid clearance; dopamine instilled at 10-8) is listed as 27%. For the same compound, the “increase in alveolar fluid resorption” value [14] was 98%.
In the case of CN1CCc2cc(Cl)c(O)cc2C(c2ccccc2)C1 (centres unmarked) [SCH 23390], the “blockade of the increase in alveolar fluid resorption” value (D1 receptor) is listed as “blocked”, the “blockade of dihydrexidine stimulation of adenylate cyclase” value (adenylate cyclase [6]; D1 antagonist) is listed as “blocked” and the “blockade of the dopamine effect on alveolar fluid resorption” value [14] is listed as “blocked”.
For CCN1CCCC1CNC(=O)c1cc(S(N)(=O)=O)ccc1OC (centres unmarked) [sulpiride], the “blockade of the dopamine effect on alveolar fluid resorption” value [14] is listed as “not”.
For Br.Oc1ccc2c(c1O)Oc1cccc3c1C2CNC3 (centres unmarked), the melting point was 298 to 302 °C (dec.).
For Oc1ccc2c(c1O)Cc1cccc3c1C2CNC3 (centres unmarked) [dinapsoline, 8,9-Dihydroxy-2,3,7,11b-tetrahydro-1H-napth[1,2,3-de]isoquinoline], the “efficacy in activating adenylate cyclase in rat brain striatum” value (adenylate cyclase [15]) was “as effective as dopamine”.
With Cc1ccc2c(c1)[C@H]1c3cc(O)c(O)cc3CC[C@@H]1NC2 (relative stereo) (as salt: hydrochloride) [Compound 6b, Trans-2-methyl-10,11-dihydroxy-5,6,6a,7,8,12b-hexahydrobenzo [α]phenanthridine hydrochloride] the melting point was 190 °C (dec.).
